This note sets out measurements from BindingDB's records for PubMed 36262403 (Abbvie, 2022).

For orientation: IC50 means the concentration at which inhibition is half-maximal.

This assay deals with T1, P2X purinoceptor 7 (Rattus norvegicus, UniProt Q64663).
T1 sequence (Q64663 whole entry): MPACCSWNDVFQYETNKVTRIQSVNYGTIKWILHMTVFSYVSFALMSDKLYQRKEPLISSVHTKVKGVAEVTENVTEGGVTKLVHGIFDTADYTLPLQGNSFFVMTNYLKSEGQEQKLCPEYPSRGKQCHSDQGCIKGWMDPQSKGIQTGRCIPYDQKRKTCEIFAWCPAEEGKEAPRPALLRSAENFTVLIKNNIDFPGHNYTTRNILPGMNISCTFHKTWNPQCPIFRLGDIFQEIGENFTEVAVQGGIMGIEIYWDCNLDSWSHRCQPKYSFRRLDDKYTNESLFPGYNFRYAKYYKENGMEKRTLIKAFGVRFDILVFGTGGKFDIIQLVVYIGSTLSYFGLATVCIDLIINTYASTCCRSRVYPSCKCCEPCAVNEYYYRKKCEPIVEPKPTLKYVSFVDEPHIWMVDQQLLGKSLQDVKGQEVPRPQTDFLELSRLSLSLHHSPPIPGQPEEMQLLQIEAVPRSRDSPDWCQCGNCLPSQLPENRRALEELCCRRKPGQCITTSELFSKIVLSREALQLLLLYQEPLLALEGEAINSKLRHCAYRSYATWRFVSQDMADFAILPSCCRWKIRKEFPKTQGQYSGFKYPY
As to the kind of experiment: Antagonist activity against rat P2X7R expressed in human 1321N1 cell membrane incubated for 1 hrs by radioligand binding assay.

Turning to `C[C@H](NC(=Nc1cccc2ncccc12)NC#N)c1ccccc1` [[3H]A-804598], the IC50 came out at 0.01 µM.
